The results in this text go back to patent publication US9738612B2, “Methylacryloyl benzimidazolone derivative and anti-tumour use thereof” (SHANGHAI NATURE STANDARD R&D AND BIOTECH CO., LTD, priority 2014, dated 2017).

In one assay the test system is p-Akt (S473). The assay is described as follows: Western blot, p-Akt (S473) in IGF stimulated A549 cells. Type of assay: cell-based. The settings on record: compound 1 h, IGF 10 min, FIG. 1, in words. Here is the method:
A549 cells were seeded at a density of 2×10^5 cells/well into 12-well plates, and adhered overnight. Then the medium was discarded and the plates were washed three times with normal saline. After that, fresh serum-free medium was added to starve cells for 24 hours, compounds to be tested were added to work for 1 h, then IGF-I was added to stimulated for 10 min, followed byadding a lysis buffer on ice to lyse for half an hour. The cell lysates were collected and centrifuged at 20000×g at 4° C. for 10min, then the supernatant was collected. Protein was quantified by MicroBCA protein quantification Assay kit, and the protein concentration was normalized. The supernatant was mixed with the 4×SDS sample buffer [200 mM Tris.Cl (pH 6.8), 400 mM DTT, 8% SDS, 0.4% bromophenol blue, 40% glycerol] and boiled for 15 min. After cooling at room temperature, aliquots were loaded on polyacrylamide gel, and electrophoresed in Tris-glycine electrophoretic buffer (25 mM Tris, 250 mM glycine, 0.1% SDS) at 80-120 V for about 2 h. Proteins were transferred from the gel to a nitrocellulose membrane by a semi-dry method. Transferring conditions: transfer buffer (39 mM glycine, 48 mM Tris base, 0.037% SDS, 20% methanol); transfer current 25 mA; transfer time 2 h. After transfer, Ponceau S staining was used to determine the transfer efficiency and the positions of protein bands on the nitrocellulose membranes. After labeling the membrane was blocked with a blocking solution containing 5% nonfat-dried milk [5% nonfat-dried milk, 20 mM Tris-HCl (pH 7.2-7.4), 150 mM NaCl, 0.1% (v/v) Tween 20] on a shaker at room temperature for 2 h. To the system were added specific primary antibodies and incubated overnight at 4° C. Then the membrane was washed with PBST solution [20 mM Tris-HCl (pH 7.2-7.4), 150 mM NaCl, 0.1% (v/v) Tween 20] at room temperature three times, 15 min/time. To the system were added Horseradish peroxidase-labeled secondary antibodies and incubated at room temperature on a shaker with gentle shaking for 2 h. After washing with PBST solution three times, the system was exposed, developed and fixed after SuperSignal West Dura Chemiluminescent Substrate (Pierce Inc, Rochford, IL) was used for color. The results were shown in FIG. 1, in which there were 12 lanes the band shade and size of which indicated the corresponding protein concentration levels. […] MK2206 was an Akt phosphorylation inhibitor developed by Merck, and was currently in phase II clinical trial, showing good therapeutic effects in a variety of tumors.
(A western blot detects proteins with antibodies after separation by electrophoresis.)

The next assay deals with SGK(h). The assay is described as follows: Tumor-associated kinase inhibition test. The class given is biochemical, human. The settings on record: 10 μM. The text has this: (§1) Eurofins Pharma Discovery Services UK Limited completed and reported this experiment.
The target of another assay is T1, PI3Kinase(p110α/p65α)(h) (Homo sapiens, UniProt P42336).
T1 construct: purchased Eurofins Pharma Discovery Services UK Limited (contract assay)
The assay is described as follows: Tumor-associated kinase inhibition test. Type of assay: biochemical. The settings on record: read-out: Inhibitory rate (%).
From the text: as §1

The target in a further assay is T2, MARK1(h) (Homo sapiens, UniProt Q9P0L2).
T2 construct: purchased Eurofins Pharma Discovery Services UK Limited
The assay is described as follows: Tumor-associated kinase inhibition test. Type of assay: biochemical. The settings on record: read-out: Inhibitory rate (%).
From the text: as §1

Another assay concerns the target T3, Tie2(h) (Homo sapiens, UniProt Q02763).
T3 construct: purchased Eurofins Pharma Discovery Services UK Limited
Nature of the assay: Tumor-associated kinase inhibition test. The settings on record: read-out: Inhibitory rate (%). Type of assay: biochemical.
From the text: as §1

The target of the next assay is T4, CSK(h) (Homo sapiens, UniProt P41240).
T4 construct: purchased Eurofins Pharma Discovery Services UK Limited (contract testing)
The assay is described as follows: Tumor-associated kinase inhibition test. The class given is biochemical. The settings on record: read-out: Inhibitory rate (%).
From the text: as §1

In the next assay the target is T5, Ros(h) (Homo sapiens, UniProt P08922).
T5 construct: purchased Eurofins Pharma Discovery Services UK Limited
Nature of the assay: Tumor-associated kinase inhibition test. Type of assay: biochemical. The settings on record: read-out: Inhibitory rate (%).
From the text: as §1

Another assay has as its target T6, MKK6(h) (Homo sapiens, UniProt P52564).
T6 construct: purchased Eurofins Pharma Discovery Services UK Limited
Nature of the assay: Tumor-associated kinase inhibition test. Type of assay: biochemical. The settings on record: read-out: Inhibitory rate (%).
From the text: as §1

The next assay addresses T7, ROCK-I(h) (Homo sapiens, UniProt Q13464).
T7 construct: purchased Eurofins Pharma Discovery Services UK Limited
Nature of the assay: Tumor-associated kinase inhibition test. The class given is biochemical. The settings on record: read-out: Inhibitory rate (%).
From the text: as §1

For another assay, the target named is T8, PI3KC2α(h) (Homo sapiens, UniProt O00443).
T8 construct: purchased Eurofins Pharma Discovery Services UK Limited (contract assay)
Nature of the assay: Tumor-associated kinase inhibition test. The class given is biochemical. The settings on record: read-out: Inhibitory rate (%).
From the text: as §1

Another assay addresses T9, Yes(h) (Homo sapiens, UniProt P07947).
T9 construct: purchased Eurofins Pharma Discovery Services UK Limited
The assay is described as follows: Tumor-associated kinase inhibition test. Type of assay: biochemical. The settings on record: read-out: Inhibitory rate (%).
From the text: as §1

In the next assay the target is T10, EphB2(h) (Homo sapiens, UniProt P29323).
T10 construct: purchased Eurofins Pharma Discovery Services UK Limited (contract testing)
Nature of the assay: Tumor-associated kinase inhibition test. The class given is biochemical. The settings on record: read-out: Inhibitory rate (%).
From the text: as §1

Another assay concerns the target T11, Abl(T315I)(h) (Homo sapiens, UniProt P00519, T315I).
T11 construct: purchased Eurofins Pharma Discovery Services UK Limited (contract assay service)
The assay is described as follows: Tumor-associated kinase inhibition test. The class given is biochemical. The settings on record: read-out: Inhibitory rate (%).
From the text: as §1

The target of another assay is T12, mTOR/FKBP12(h) (Homo sapiens, UniProt P42345).
T12 construct: purchased Eurofins Pharma Discovery Services UK Limited
The assay is described as follows: Tumor-associated kinase inhibition test. Type of assay: biochemical. The settings on record: read-out: Inhibitory rate (%).
From the text: as §1

Another assay concerns the target T13, cSRC(h) (Homo sapiens, UniProt P12931).
T13 construct: purchased Eurofins Pharma Discovery Services UK Limited (contract testing)
Nature of the assay: Tumor-associated kinase inhibition test. The class given is biochemical. The settings on record: read-out: Inhibitory rate (%).
From the text: as §1

A further assay relates to SGC-7901. The assay is described as follows: Sulforhodamine B proliferation. The settings on record: Homo sapiens, SGC-7901, 72 h, SRB, read-out: Inhibitory rate % (SGC-7901). Type of assay: cell-based. Here is the method: (§2) At a certain density cells were seeded in 96-well plates, and adhered overnight. The medium was discarded after incubating cells with compounds to be tested for 72 h, then 100μL/well trichloroacetic acid (TCA) was added to fix cells at 4° C. for 2h. After that the fixing solution was discarded. Cells were gently washed 5 times with distilled water, dried at room temperature. Cells were stained with 4 mg/mL SRB staining solution (100 μL/well) at room temperature for 15min. The staining solution was discarded, and cells were washed five times with 1% acetic acid (HAC) and dried at room temperature. To the plate tris base buffer (10 mM) was added at 150 μL/well and placed at room temperature for 15min. The OD values were measured at 540 nm wavelength in a microplate reader. Inhibitory rate (%)=(OD valuecontrol wells−OD valuedrugs treated wells)/OD valuecontrol wells×100%.
(§3) The results were shown in Table 2, the working concentrations of MK2206 and compounds of FD series were 10 μM. As shown in this Table, PC-3 is a prostate cancer cell line purchased from Cell Resource Center of Shanghai Institutes for Biological Sciences, Chinese Academy of Sciences, A549 is a lung cancer cell line purchased from Cell Resource Center of Shanghai Institutes for Biological Sciences, Chinese Academy of Sciences, and SGC-7901 is a gastric cancer cell line purchased from Cell Resource Center of Shanghai Institutes for Biological Sciences, Chinese Academy of Sciences.

The test system of another assay is PC-3. Nature of the assay: Sulforhodamine B proliferation. The settings on record: Homo sapiens, PC-3, 72 h, 72 h, SRB, read-out: Inhibitory rate % (PC-3). Type of assay: cell-based. How it is done: as §2, §3
For a further assay, the system named is A549. Nature of the assay: Sulforhodamine B proliferation. Type of assay: cell-based. The settings on record: Homo sapiens, A549, 72 h, SRB, read-out: Inhibitory rate % (A549). How it is done:
as §2, §3

T9 sequence (P07947 whole entry): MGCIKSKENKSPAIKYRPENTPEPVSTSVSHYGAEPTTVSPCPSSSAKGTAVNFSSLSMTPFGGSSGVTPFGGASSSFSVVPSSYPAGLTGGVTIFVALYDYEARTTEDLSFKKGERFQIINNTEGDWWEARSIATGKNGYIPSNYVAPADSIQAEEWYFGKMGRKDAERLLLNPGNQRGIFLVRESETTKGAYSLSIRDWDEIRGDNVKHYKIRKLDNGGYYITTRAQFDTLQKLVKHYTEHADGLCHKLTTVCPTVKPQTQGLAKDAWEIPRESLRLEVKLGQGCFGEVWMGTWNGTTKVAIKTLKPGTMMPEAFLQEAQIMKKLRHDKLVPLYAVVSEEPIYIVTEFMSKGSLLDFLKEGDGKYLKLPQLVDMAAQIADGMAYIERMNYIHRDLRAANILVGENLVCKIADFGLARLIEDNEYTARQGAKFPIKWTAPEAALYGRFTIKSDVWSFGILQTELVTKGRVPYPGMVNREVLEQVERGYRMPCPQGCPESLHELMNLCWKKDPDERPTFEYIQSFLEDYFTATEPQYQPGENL
T10 sequence (P29323 19-1055): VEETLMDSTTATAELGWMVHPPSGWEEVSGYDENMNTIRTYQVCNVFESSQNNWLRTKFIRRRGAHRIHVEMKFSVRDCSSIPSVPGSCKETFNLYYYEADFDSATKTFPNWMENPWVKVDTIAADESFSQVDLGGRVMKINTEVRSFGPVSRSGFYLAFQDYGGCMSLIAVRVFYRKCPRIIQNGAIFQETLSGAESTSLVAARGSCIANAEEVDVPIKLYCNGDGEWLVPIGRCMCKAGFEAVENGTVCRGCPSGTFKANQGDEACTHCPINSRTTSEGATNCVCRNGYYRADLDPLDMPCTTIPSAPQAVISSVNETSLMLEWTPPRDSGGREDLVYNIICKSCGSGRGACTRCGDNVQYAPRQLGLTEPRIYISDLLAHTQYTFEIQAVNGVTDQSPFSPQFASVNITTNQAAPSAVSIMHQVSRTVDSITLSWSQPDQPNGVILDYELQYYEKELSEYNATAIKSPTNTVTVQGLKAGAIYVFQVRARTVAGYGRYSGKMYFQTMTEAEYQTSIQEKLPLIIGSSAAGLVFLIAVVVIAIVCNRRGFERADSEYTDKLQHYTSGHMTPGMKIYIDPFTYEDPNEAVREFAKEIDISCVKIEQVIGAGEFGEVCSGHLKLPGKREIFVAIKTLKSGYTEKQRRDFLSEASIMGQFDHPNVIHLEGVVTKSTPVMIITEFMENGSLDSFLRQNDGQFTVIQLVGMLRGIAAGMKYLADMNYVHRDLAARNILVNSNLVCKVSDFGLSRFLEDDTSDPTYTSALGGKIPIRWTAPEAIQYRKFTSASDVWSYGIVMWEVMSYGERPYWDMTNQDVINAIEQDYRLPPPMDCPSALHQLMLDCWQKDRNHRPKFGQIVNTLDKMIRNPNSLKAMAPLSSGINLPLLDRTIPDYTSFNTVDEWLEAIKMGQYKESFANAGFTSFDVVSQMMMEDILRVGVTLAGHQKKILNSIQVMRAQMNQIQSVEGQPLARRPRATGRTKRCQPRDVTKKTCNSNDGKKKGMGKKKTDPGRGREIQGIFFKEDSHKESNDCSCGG
T3 sequence (Q02763 23-1124): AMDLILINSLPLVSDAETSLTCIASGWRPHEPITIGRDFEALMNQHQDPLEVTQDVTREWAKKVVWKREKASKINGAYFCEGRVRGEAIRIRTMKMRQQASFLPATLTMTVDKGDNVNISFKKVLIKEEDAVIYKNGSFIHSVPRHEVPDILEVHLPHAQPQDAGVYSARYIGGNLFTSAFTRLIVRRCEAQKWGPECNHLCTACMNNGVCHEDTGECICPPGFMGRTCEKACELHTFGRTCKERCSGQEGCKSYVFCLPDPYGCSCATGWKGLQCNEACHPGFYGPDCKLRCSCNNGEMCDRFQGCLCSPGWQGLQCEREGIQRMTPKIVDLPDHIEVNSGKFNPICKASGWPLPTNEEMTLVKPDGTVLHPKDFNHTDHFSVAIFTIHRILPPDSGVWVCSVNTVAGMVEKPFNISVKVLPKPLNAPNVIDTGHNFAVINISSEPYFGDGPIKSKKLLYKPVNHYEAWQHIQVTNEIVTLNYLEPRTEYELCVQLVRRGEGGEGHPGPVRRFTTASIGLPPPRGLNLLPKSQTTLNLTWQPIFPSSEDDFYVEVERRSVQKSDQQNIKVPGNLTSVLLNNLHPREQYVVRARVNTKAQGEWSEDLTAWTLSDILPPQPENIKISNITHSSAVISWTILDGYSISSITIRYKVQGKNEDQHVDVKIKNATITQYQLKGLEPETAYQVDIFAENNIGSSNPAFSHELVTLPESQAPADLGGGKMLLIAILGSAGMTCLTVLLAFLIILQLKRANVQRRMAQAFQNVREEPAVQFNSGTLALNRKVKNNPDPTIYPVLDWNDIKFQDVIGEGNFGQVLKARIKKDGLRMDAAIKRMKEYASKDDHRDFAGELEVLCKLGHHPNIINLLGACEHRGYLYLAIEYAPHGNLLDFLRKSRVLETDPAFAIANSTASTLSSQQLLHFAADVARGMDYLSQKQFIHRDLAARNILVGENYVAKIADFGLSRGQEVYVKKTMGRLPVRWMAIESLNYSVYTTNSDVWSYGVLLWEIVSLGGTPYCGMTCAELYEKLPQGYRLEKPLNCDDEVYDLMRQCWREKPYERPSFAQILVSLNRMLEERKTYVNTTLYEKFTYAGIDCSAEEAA
T8 sequence (O00443 whole entry): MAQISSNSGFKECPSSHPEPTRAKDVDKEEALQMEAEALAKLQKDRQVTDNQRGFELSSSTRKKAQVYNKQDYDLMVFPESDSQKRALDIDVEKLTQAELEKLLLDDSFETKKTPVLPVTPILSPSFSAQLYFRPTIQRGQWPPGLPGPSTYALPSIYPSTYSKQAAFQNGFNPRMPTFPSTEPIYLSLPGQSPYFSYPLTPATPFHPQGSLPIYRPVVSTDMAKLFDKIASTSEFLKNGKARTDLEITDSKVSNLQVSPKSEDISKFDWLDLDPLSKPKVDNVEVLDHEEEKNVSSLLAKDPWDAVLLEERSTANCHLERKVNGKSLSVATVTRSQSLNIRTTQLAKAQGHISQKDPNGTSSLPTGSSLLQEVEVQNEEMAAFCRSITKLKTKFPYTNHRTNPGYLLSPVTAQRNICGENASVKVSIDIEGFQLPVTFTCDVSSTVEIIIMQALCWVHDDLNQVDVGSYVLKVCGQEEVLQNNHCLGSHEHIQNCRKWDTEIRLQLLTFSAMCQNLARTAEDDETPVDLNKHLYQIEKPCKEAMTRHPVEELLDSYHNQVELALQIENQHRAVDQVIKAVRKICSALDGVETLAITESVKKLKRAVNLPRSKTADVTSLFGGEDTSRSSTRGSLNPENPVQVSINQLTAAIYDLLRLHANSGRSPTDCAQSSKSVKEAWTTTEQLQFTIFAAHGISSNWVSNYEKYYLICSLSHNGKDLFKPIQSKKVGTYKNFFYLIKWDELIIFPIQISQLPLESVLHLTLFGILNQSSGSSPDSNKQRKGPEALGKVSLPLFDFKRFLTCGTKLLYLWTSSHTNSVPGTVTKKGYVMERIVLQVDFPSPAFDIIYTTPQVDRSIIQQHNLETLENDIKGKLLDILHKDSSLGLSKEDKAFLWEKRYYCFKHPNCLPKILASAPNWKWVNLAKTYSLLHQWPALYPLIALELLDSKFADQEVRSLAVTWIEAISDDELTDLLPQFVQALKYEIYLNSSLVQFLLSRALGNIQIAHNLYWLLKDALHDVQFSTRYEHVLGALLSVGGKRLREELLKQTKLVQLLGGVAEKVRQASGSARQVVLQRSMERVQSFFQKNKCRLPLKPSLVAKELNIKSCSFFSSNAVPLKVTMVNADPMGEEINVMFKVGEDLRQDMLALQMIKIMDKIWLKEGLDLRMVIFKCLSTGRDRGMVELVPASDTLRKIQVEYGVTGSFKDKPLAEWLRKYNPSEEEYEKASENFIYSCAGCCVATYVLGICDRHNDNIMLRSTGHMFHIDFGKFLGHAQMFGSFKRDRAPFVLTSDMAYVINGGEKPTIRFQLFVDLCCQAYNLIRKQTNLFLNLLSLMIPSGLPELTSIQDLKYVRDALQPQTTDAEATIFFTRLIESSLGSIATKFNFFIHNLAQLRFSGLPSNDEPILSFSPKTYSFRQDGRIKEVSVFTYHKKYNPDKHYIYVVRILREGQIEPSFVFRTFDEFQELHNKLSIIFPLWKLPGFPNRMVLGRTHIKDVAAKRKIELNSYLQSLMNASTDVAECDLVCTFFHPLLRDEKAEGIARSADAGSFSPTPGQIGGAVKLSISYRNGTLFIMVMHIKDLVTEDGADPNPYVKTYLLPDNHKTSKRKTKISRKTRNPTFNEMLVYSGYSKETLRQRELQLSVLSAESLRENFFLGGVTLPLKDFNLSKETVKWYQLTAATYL
T6 sequence (P52564 whole entry): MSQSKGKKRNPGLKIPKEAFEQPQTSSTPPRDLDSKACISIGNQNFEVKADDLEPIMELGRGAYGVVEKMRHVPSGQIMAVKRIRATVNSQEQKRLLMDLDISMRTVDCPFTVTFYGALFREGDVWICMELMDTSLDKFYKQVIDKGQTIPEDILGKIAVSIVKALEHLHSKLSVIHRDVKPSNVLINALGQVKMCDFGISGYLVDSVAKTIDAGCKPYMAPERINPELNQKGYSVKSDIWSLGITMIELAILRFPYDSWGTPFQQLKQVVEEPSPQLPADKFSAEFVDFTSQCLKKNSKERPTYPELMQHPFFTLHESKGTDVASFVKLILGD

For `C=C(C)n1c(=O)n(C(C)=O)c2ncc(Br)cc21` [FD162], the results for the “Effect on Akt phosphorylation level (p-Akt S473 band)” value with p-Akt (S473) and in the assay on p-Akt (S473) (listed as FD3) were “significantly reduce the Akt phosphorylation level” and “comparable effects to MK2206”, respectively. Further, the “Inhibitory rate (%)” value in the assay on SGK(h) is on record as −4%. Further, the inhibition at 10 µM was 3% at PI3Kinase(p110α/p65α)(h); -1% at MARK1(h); 14% on Tie2(h); -12% at CSK(h); -13% on Ros(h); 5% on MKK6(h). Moreover, the inhibition at 10 µM is -4% at ROCK-I(h); 7% on PI3KC2α(h); -2% on Yes(h); 7% at EphB2(h); -14% on Abl(T315I)(h); 33% on mTOR/FKBP12(h). Moreover, the inhibition at 10 µM at cSRC(h) is -4%; in the assay on SGC-7901, 70.2%; in the assay with PC-3, 62.4%; in the assay with A549, 12.1%.
